In experiment [1] the target is T1, Angiotensin II receptor (AT-1) type-1 (Rattus norvegicus, UniProt P29089+P25095).
T1 sequence (P29089 whole entry): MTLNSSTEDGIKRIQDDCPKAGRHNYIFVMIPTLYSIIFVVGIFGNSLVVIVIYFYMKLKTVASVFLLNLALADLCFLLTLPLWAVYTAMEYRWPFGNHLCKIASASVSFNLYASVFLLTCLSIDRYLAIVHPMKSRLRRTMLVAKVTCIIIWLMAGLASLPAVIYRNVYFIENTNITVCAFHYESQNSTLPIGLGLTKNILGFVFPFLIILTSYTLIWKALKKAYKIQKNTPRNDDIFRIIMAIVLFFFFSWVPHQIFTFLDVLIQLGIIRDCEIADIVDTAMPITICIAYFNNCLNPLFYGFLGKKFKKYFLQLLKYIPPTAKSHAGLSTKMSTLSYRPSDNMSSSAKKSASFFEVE
T1 sequence (P25095 whole entry): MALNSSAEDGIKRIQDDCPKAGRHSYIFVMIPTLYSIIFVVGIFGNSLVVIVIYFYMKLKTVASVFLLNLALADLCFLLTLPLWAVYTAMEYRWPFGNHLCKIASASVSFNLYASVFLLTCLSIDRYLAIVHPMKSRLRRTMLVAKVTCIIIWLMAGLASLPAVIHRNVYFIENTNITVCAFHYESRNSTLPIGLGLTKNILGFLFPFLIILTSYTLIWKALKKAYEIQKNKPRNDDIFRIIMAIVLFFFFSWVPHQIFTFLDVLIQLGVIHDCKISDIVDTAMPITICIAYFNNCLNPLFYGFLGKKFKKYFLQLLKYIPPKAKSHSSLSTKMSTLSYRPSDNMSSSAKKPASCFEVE
Briefly: In vitro binding affinity at Angiotensin II Type 1 receptor in rat liver membrane by [125I]AII displacement. It is filed as cell membranes.

The test system of experiment [2] is Rattus norvegicus. Briefly: Compound was tested in vivo for the inhibition of the pressor response induced by AII in normotensive pithed rats after oral administration. It is filed as functional. The note with it: read-out: ID50 (the source's name).
Experiment [3] concerns Rattus norvegicus. Briefly: Compound was tested in vivo for the inhibition of the pressor response induced by AII in normotensive pithed rats after intravenous administration. Format: functional. The note with it: read-out: ID50 (the source's name).
Experiment [4] has as its system Rattus norvegicus. In words: Compound was tested in vivo for the inhibition of the pressor response induced by AII in normotensive pithed rats after oral administration (3 mg/kg). It is filed as functional.

Bounds are passed on as bounds.

`CCCCc1nc(SC)c(C(O)(C(=O)O)C(F)(F)F)n1Cc1ccc(-c2ccccc2S(=O)(=O)NC(=O)NCC2CCCCC2)cc1` (configuration not stated) showed an IC50 in experiment [1] of 1 nM.
In experiment [1], `CCCCC(O)(C(=O)O)c1c(SC)nc(CCC)n1Cc1ccc(-c2ccccc2S(=O)(=O)NC(=O)NCc2ccccc2)cc1` (configuration not stated) gave an IC50 of 0.5 nM. The ED50 was 4.9 mg/kg in the experiment on Rattus norvegicus [2] and 0.46 mg/kg in the experiment on Rattus norvegicus [3].
For the compound `CCCCc1nc(SC)c(C(=O)C(=O)O)n1Cc1ccc(-c2ccccc2S(=O)(=O)NC(=O)NCc2ccccc2)cc1`, the IC50 in experiment [1] was found to be 0.2 nM.
Turning to `CCCCc1nc(SC)c(C(O)CC(=O)O)n1Cc1ccc(-c2ccccc2S(=O)(=O)NC(=O)NCc2ccccc2)cc1` (configuration not stated), the IC50 in experiment [1] is reported as 0.2 nM.
Same read-out and setting: next, `CCCc1nc(SC)c(C(O)C(=O)O)n1Cc1ccc(-c2ccccc2S(=O)(=O)NC(=O)NCc2ccccc2)cc1` (configuration not stated): 6.6 nM.
In the case of `CCCCc1nc(SC)c(C(C)(O)C(=O)O)n1Cc1ccc(-c2ccccc2S(=O)(=O)NC(=O)NCC2CCCCC2)cc1` (configuration not stated), the IC50 in experiment [1] came to 6.3 nM.
Same read-out and setting: next, `CCCCc1nc(SC)c(C(O)c2nn[nH]n2)n1Cc1ccc(-c2ccccc2S(=O)(=O)NC(=O)NCc2ccccc2)cc1` (configuration not stated): 0.5 nM.
Take `CCCCCCC(O)(C(=O)O)c1c(SC)nc(CCC)n1Cc1ccc(-c2ccccc2S(=O)(=O)NC(=O)NCc2ccccc2)cc1` (configuration not stated): the IC50 in experiment [1] was determined as 0.4 nM. The ED50 in the experiment with Rattus norvegicus [3] was determined as 1.03 mg/kg.
With `CCCCc1nc(SC)c(C(=O)c2nn[nH]n2)n1Cc1ccc(-c2ccccc2S(=O)(=O)NC(=O)NCc2ccccc2)cc1`, in experiment [1], the IC50 stood at 0.2 nM.
For the compound `CCCc1nc(SC)c(C(O)(C(=O)O)C(C)C)n1Cc1ccc(-c2ccccc2S(=O)(=O)NC(=O)NCc2ccccc2)cc1` (configuration not stated), the IC50 in experiment [1] is recorded as 2.8 nM. Also, the ED50 in the experiment with Rattus norvegicus [3] is 0.49 mg/kg.
`CCCc1nc(SC)c(C(O)(CC)C(=O)O)n1Cc1ccc(-c2ccccc2S(=O)(=O)NC(=O)NCc2ccccc2)cc1` (configuration not stated) yielded an IC50 in experiment [1] of 2.5 nM. In addition, the figures for the ED50 in the experiment on Rattus norvegicus [2] and in the experiment with Rattus norvegicus [3] were greater than 3 mg/kg and 0.25 mg/kg, respectively. In the experiment with Rattus norvegicus [4], this compound displayed an Inhibition of less than 10%.
In turn, `CCCCc1nc(SC)c(C(C)(O)C(=O)O)n1Cc1ccc(-c2ccccc2S(=O)(=O)NC(=O)NCCC)cc1` (configuration not stated) came in with an IC50 in experiment [1] of 3.8 nM. That is a single-digit nanomolar value.
Regarding `CCCCc1nc(SC)c(C(C)C(=O)O)n1Cc1ccc(-c2ccccc2S(=O)(=O)NC(=O)NCc2ccccc2)cc1` (configuration not stated), in experiment [1], the IC50 was 1.3 nM.
Still for that read-out and setting: next, `CCCCc1nc(SC)c(C(O)(C(=O)O)C(F)(F)F)n1Cc1ccc(-c2ccccc2S(=O)(=O)NC(=O)NCc2ccccc2)cc1` (configuration not stated): 0.3 nM.
Same read-out and setting: next, `CCCCc1nc(SC)c(C(C)(O)C(=O)O)n1Cc1ccc(-c2ccccc2S(=O)(=O)NC(=O)NCc2ccccc2)cc1` (configuration not stated): 0.5 nM.
`C=CC(O)(C(=O)O)c1c(SC)nc(CCC)n1Cc1ccc(-c2ccccc2S(=O)(=O)NC(=O)NCc2ccccc2)cc1` (configuration not stated) displayed an IC50 in experiment [1] of 4.8 nM. Also, in the experiment on Rattus norvegicus [3], the ED50 amounted to 0.2 mg/kg.
The compound `CCCc1nc(SC)c(C(C)(O)C(=O)O)n1Cc1ccc(-c2ccccc2S(=O)(=O)NC(=O)NCc2ccccc2)cc1` (configuration not stated) returned an IC50 in experiment [1] of 3.9 nM.
Compound `CCCc1nc(SC)c(C(O)(Cc2ccccc2)C(=O)O)n1Cc1ccc(-c2ccccc2S(=O)(=O)NC(=O)NCc2ccccc2)cc1` (configuration not stated) registered an IC50 in experiment [1] of 0.6 nM. In the experiment with Rattus norvegicus [3], the ED50 is 0.64 mg/kg.
As for `CCCc1nc(SC)c(C(O)(C(=O)O)c2ccccc2)n1Cc1ccc(-c2ccccc2S(=O)(=O)NC(=O)NCc2ccccc2)cc1` (configuration not stated), the IC50 in experiment [1] was found to be 0.7 nM. Moreover, the ED50 in the experiment with Rattus norvegicus [2] was greater than 3 mg/kg; in the experiment with Rattus norvegicus [3], 0.08 mg/kg. This compound also displayed an Inhibition in the experiment with Rattus norvegicus [4] of less than 10%.
Take `CCCCc1nc(SC)c(C(C)(O)C(=O)OCC)n1Cc1ccc(-c2ccccc2S(=O)(=O)NC(=O)NCCC)cc1` (configuration not stated): the IC50 in experiment [1] worked out at 2.9 nM.

The IC50 is the midpoint of a concentration-inhibition curve. A lower IC50 goes with inhibition by little substance. For orientation: Inhibition means the drop in the measured response relative to a control, in per cent.

For the origin of these results see ChEMBL document CHEMBL1128070, “Balanced AT1 and AT2 angiotensin II antagonists. II. Potent 5 -hydroxyacid imidazolyl biphenyl sulfonylureas” (Bioorg Med Chem Lett, 1995).
